From publication PMC8560925, “Inhibition of Clostridium difficile TcdA and TcdB toxins with transition state analogues” (Nature Communications, 2021)
“And” between values parts separate entries of the source, which are not always exact repeats. Identical values can stand only once. Counter-ions that a name gives are not always drawn. Like-named read-outs stand apart in the source and are kept apart here.

Legend:
[1] = molecular target: T1, TcdB-GTD (Clostridioides difficile, UniProt P18177); experiment: biochemical; assay type: biochemical, Clostridium difficile
T1 construct: C-terminal His-6 tagged TcdB-GTD (amino acids 1-546); His6 (C); made in house; host or cells: Escherichia coli One Shot BL21 Star (DE3)
T1 sequence (P18177 1-546 limits assumed): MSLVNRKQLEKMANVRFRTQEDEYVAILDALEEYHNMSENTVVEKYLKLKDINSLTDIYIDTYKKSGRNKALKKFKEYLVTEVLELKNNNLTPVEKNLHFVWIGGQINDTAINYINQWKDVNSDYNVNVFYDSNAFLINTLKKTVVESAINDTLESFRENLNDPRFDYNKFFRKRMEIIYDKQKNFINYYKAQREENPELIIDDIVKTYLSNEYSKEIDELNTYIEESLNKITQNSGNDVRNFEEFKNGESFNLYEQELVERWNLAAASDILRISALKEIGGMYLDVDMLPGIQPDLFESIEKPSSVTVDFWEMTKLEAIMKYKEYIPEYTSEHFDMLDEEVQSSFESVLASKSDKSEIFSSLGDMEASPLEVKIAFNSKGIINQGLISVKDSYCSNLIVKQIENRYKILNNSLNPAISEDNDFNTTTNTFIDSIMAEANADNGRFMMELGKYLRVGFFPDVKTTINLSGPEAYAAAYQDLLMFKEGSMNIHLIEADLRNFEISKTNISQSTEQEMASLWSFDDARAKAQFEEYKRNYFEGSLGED

[2] = molecular target: T1, TcdB-GTD; experiment: biochemical; parameters: species or system Clostridium difficile
[3] = test system: TcdB-GTD; settings: cited from earlier work
[4] = test system: C. sordelli lethal toxin; settings: cited from earlier work
[5] = test system: Rac1 glucosylation by TcdA in IMR90 cells; experiment: Western blot analysis of Rac1 glucosylation in IMR90 cells, TcdA; assay type: cell-based, human; settings: 12.5–100 µM iminosugar, 1 nM TcdA, 6 h
Description: (§1) IMR90 cells were grown in EMEM with 10% FBS in 24-well plates inoculated at 50,000 cells/well. […] Next, TcdA (1 nM final) or TcdB (0.1 nM final) was added to each well and cells were incubated at 37 °C, 5% CO2 for 6 h. The cells were lysed with mammalian cell lysis buffer (Abcam) according to manufacturer’s instructions. Cell lysates (2 µg) were heated at 95 °C in XT-loading dye (Bio-rad) before being loaded on an SDS polyacrylamide gel. Following electrophoresis, samples were transferred to PVDF membrane using an iblot2 device (ThermoFisher), blocked with 1% milk in PBS 0.1% Tween 20 for 1 h at room temperature and probed with a 1/4000 dilution of anti-Rac1 (Mab102, Thermo Fisher) and 1/8000 of anti-GAPDH antibody (Abcam) for 1 h at room temperature. Following incubation with the primary antibody, the membrane was washed 3 times with PBS with 0.1% Tween20 and incubated with a 1/40,000 dilution of secondary antibody for 1 h. Following incubation with the secondary antibody, the membrane was washed 3 times in PBS 0.1% tween 20 before a final wash in PBS. […]

[6] = test system: cell lines; experiment: Cell toxicity of the iminosugars in the cell lines used; assay type: cell-based; settings: high treatment concentrations
[7] = test system: TcdA-induced cell rounding of IMR90 cells; assay type: cell-based, human
[8] = test system: Gaucher disease patients; parameters: method as in NCTs: 00433147; 00446550; 00813865; 00875160; settings: ref NCTs: 00433147, 00446550, 00813865, 00875160, cited from earlier work
[9] = test system: TcdB-induced cell rounding of Vero cells; experiment: cells; assay type: cell-based; settings: Chlorocebus sabaeus, 1.5 h, read-out: Calculated IC50 cell rounding
[10] = test system: Rac1 glucosylation by TcdB in IMR90 cells; experiment: Western blot analysis of Rac1 glucosylation in IMR90 cells, TcdB; assay type: cell-based, human; settings: 12.5–100 µM iminosugar, 0.1 nM TcdB, 6 h
Description: as §1

[11] = test system: TcdA-induced apoptosis of HT-29 cells; assay type: cell-based
[12] = test system: TcdA-induced cell rounding of Vero cells; experiment: cells; assay type: cell-based; settings: Chlorocebus sabaeus, 2 h, read-out: Calculated IC50 cell rounding
[13] = test system: TcdB-induced cell rounding of IMR90 cells; assay type: cell-based, human
[14] = parameters: method as in Khanna et al, FEBS journal, 2010, vol 277, p 1618; settings: after administration; ref Khanna et al, FEBS journal, 2010, vol 277, p 1618; cited from earlier work
[15] = molecular target: T1, TcdB-GTD; assay type: binding, Clostridium difficile
[16] = molecular target: T2, TcdA-GTD (Clostridioides difficile, UniProt P16154); experiment: biochemical; assay type: biochemical, Clostridium difficile
T2 construct: TcdA-GTD (amino acids 1–542); His6 (C); made in house; host or cells: E. coli One shot BL21 Star (DE3)
T2 sequence (P16154 1-542): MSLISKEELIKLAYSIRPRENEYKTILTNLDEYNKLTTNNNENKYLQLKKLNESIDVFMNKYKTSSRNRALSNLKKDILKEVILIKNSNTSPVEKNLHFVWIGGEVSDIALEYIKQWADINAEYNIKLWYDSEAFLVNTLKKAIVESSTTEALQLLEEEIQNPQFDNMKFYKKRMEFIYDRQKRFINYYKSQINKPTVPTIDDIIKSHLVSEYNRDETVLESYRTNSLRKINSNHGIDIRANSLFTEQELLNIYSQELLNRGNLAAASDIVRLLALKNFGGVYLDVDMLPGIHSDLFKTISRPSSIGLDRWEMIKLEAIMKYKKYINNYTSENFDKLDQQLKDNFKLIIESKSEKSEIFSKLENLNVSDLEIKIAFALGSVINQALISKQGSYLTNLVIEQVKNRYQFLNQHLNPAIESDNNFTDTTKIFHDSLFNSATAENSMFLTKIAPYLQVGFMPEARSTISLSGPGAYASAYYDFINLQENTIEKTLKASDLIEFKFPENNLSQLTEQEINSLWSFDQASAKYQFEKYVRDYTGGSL

[17] = molecular target: T3, TcdB-GTD in the presence of UDP (Clostridioides difficile, UniProt P18177); experiment: biochemical; assay type: binding, Clostridium difficile; settings: for Kd: ITC, 1 mM UDP
T3 construct: C-terminal His-6 tagged TcdB-GTD (amino acids 1-546); His6 (C); made in house; host or cells: Escherichia coli One Shot BL21 Star (DE3)
T3 sequence (P18177 1-546 limits assumed): as the sequence (P18177 1-546 limits assumed) above

[18] = Ki TcdB-GTD glucosyltransferase activity
[19] = Ki TcdB-GTD glucohydrolase activity
[20] = Ki TcdB-GTD glucosyltransferase activity, fixed concentration of UDP at 2 x Ki UDP
[21] = Ki TcdA-GTD glucosyltransferase activity
[22] = Ki TcdA-GTD glucosyltransferase activity, fixed concentration of UDP at 2 x Ki UDP

OC[C@@H]1[C@@H](O)[C@H](O)[C@H]2[C@@H](O)CCN21 [Australine HCl, australine hydrochloride]
remaining activity at 500 µM ([1]; read-out: % enzyme activity): 73.4% | remaining activity at 1000 µM ([1]; read-out: % enzyme activity): 45.1% | remaining activity at 2000 µM ([1]; read-out: % enzyme activity): 21.8% | remaining activity at 4000 µM ([1]; read-out: % enzyme activity): 0% | remaining activity at […] ([1]; read-out: % enzyme activity): 100% | Ki ([1]; read-out: Ki TcdB-GTD glucosyltransferase activity): 1570 ± 430 µM | Ki ([2]; read-out: Ki TcdB-GTD GH activity, no inhibition): > 10000 µM | Ki ([2]; read-out: Ki TcdB-GTD glucohydrolase activity): > 10000 µM

O[C@H]1[C@H](O)[C@@H](O)CN2CC[C@H](O)[C@H]12 [Castanospermine]
Ki [1, 18]: 680 ± 20 µM | remaining activity at 1000 µM ([1]; read-out: % enzyme activity): 25.9% | remaining activity at 4000 µM ([1]; read-out: % enzyme activity): 0% | IC50 [3]: ~400 µM | Ki [2, 19]: 3400 ± 200 µM | IC50 [4]: ~100 µM

OC[C@H]1NC[C@H](O)[C@@H](O)[C@@H]1O [Deoxynojirimycin]
Inhibition of TcdB-GTD GT activity [1]: did not inhibit | Ki [1, 18]: > 10000 µM | Inhibition of TcdB-GTD GH activity [2]: did not inhibit | Ki [2, 19]: > 10000 µM

O=C1O[C@H](CO)[C@@H](O)[C@H](O)[C@H]1O [Gluconolactone, D-gluconon-1,5-lactone]
Ki [1, 18]: 440 µM | Ki [2, 19]: 414 µM

OC[C@H]1OC(O)[C@H](O)[C@@H](O)[C@@H]1O (stereo partly shown) [Glucose]
Inhibition [1]: no significant inhibition | Inhibition of TcdB-GTD ([3]; ref 42 (numbering of the author response)): no significant inhibition

OC[C@H]1CNC[C@@H](O)[C@@H]1O [Isofagomine]
Mode of inhibition versus UDP-glucose [1]: uncompetitive | fold improvement of inhibitory affinity in the presence of UDP [1]: 2.4 fold | Ki [1, 18]: 1.4 ± 0.1 µM | Ki [1, 20]: 0.29 ± 0.06 µM | remaining activity at 0.015 µM ([1]; read-out: % enzyme activity): 99.7% | remaining activity at 0.061 µM ([1]; read-out: % enzyme activity): 100% | remaining activity at 0.24 µM ([1]; read-out: % enzyme activity): 88.2% | remaining activity at 0.48 µM ([1]; read-out: % enzyme activity): 95.9% | remaining activity at 1.95 µM ([1]; read-out: % enzyme activity): 72% | remaining activity at 3.9 µM ([1]; read-out: % enzyme activity): 37.8% | remaining activity at 3.906 µM ([1]; read-out: % enzyme activity): 15.8% | remaining activity at 7.81 µM ([1]; read-out: % enzyme activity): 19.7% | remaining activity at 15.62 µM ([1]; read-out: % enzyme activity): 8.07% | remaining activity at […] ([1]; read-out: % enzyme activity): 87.8% and 80.5% and 43.4% | Unglucosylated Rac1 (Mab102) versus total Rac1 [5]: dose-dependent reappearance of unglucosylated Rac1 | Cell toxicity [6]: no cell toxicity | Effect on toxin-induced cell rounding [7]: prevented | Tolerability of oral doses ([8]; 225 mg/day oral, Gaucher patients): well tolerated | Reduction in Gaucher disease symptoms ([8]; majority of patients): did not show a significant reduction | IC50 [9]: 8.3 ± 3.6 µM | Unglucosylated Rac1 (Mab102) versus total Rac1 [10]: dose-dependent reappearance of unglucosylated Rac1 | Effect on TcdA-induced apoptosis (Annexin V) [11]: prevented apoptosis | Ki [2, 19]: 4.8 ± 0.2 µM | IC50 [12]: 5.5 ± 1.5 µM | Effect on toxin-induced cell rounding [13]: prevented | Time to maximal levels in plasma, liver, spleen and brain [14]: ≤ 1 h | Binding to TcdB-GTD alone (ITC) [15]: no significant binding | Mode of inhibition versus UDP-glucose [16]: uncompetitive inhibition | fold improvement of inhibition constant for TcdA-GTD relative to TcdB-GTD [16]: 5.8 fold | fold improvement of inhibition constant in the presence of UDP [16]: 15 fold | Ki [16, 21]: 0.24 ± 0.01 µM | Ki [16, 22]: 0.016 ± 0.002 µM | ΔH [17]: -10.3 ± 0.1 kcal/mol | −TΔS [17]: 0.5 ± 0.2 kcal/mol | Kd [17]: 0.067 µM and 0.0669 µM

OC[C@H]1CNC(O)[C@@H](O)[C@@H]1O (stereo partly shown) [Noeuromycin]
Mode of inhibition versus UDP-glucose [1]: uncompetitive | fold improvement of inhibitory affinity in the presence of UDP [1]: 4.8 fold | fold less potent than isofagomine [1]: 7.6 fold | Ki [1, 18]: 10.6 ± 1 µM | Ki [1, 20]: 4.4 ± 0.1 µM | Unglucosylated Rac1 (Mab102) versus total Rac1 [5]: dose-dependent reappearance of unglucosylated Rac1 | Cell toxicity [6]: no cell toxicity | Effect on toxin-induced cell rounding [7]: prevented | IC50 [9]: 13.6 ± 5.6 µM | Unglucosylated Rac1 (Mab102) versus total Rac1 [10]: dose-dependent reappearance of unglucosylated Rac1 | Effect on TcdA-induced apoptosis (Annexin V) [11]: prevented apoptosis | Ki [2, 19]: 12 ± 1.6 µM | IC50 [12]: 9.6 ± 3.3 µM | Effect on toxin-induced cell rounding [13]: prevented | Binding to TcdB-GTD alone (ITC) [15]: no significant binding | fold improvement of inhibition constant for TcdA-GTD relative to TcdB-GTD [16]: 2.3 fold | fold improvement of inhibition constant in the presence of UDP [16]: 23 fold | Ki ([16]; Ki TcdA-GTD GT activity, fixed concentration of UDP at 2 x Ki UDP): 0.21 ± 0.05 µM | Ki [16, 21]: 4.7 ± 0.2 µM | Ki [16, 22]: 0.214 ± 0.055 µM | ΔH [17]: -5.2 ± 0.1 kcal/mol | −TΔS [17]: 4.2 ± 0.3 kcal/mol | Kd [17]: 0.18 µM

O[C@H]1[C@H]2[C@H](O)CCCN2C[C@H]1O [Swainsonine]
Ki ([1]; Ki TcdB-GTD GT activity): > 10000 µM | Ki [1, 18]: > 10000 µM | Ki ([2]; Ki TcdB-GTD GH activity): > 10000 µM | Ki [2, 19]: > 10000 µM

O.O=c1ccn([C@@H]2O[C@H](COP(=O)([O-])OP(=O)([O-])O)[C@@H](O)[C@H]2O)c(=O)[nH]1.[Na+].[Na+] [UDP, Uridine 5’diphosphate disodium salt hydrate]
Mode of inhibition versus UDP-glucose [1]: competitive inhibition | remaining activity at 4.84 µM ([1]; read-out: % enzyme activity): 86.1% | remaining activity at 19.37 µM ([1]; read-out: % enzyme activity): 65.3% | remaining activity at 78 µM ([1]; read-out: % enzyme activity): 19.7% | remaining activity at […] ([1]; read-out: % enzyme activity): 99.1% | ΔH [15]: -14.3 ± 3.9 kcal/mol | −TΔS [15]: 8.2 ± 3.8 kcal/mol
